# Results published in patent US10668062B2, “Oxabicycloheptanes and oxabicycloheptenes for the treatment of diabetes” (priority 2012, dated 2020).
# “Also recorded” adds a separate entry of the source.
# What was measured:
# PP2A [1] = target: T1, PP2A (Rattus norvegicus, UniProt P63331); details: inhibition of PP2A activity; Galbo et al, 2011; cited from earlier work
# T1 construct: rat liver cells exposed to palmitate, a fatty acid, PP2A activity is increased; host or cells: rat liver cells (endogenous PP2A)
# Akt = test: Dephosphorylation and inactivation of Akt in mammalian cells (Example 3); format: cell-based; details: mammalian cells incl. fat, liver, muscle, endothelial cells, hepatocytes, pancreatic islet β-cells
# [2] = Activity when given orally to mice; format: in vivo; details: oral
# Source text: (§1) The compounds used in the method of the present invention are protein phosphatase 2A (PP2A) inhibitors (Lu et al., 2009; U.S. Pat. No. 7,998,957 B2). […] It has also been shown that another structural homolog of these compounds, LB-107, is active when given orally to mice.
# (§2) Disclosed herein is that PP2A inhibitors are effective in treating insulin resistance, Type 2 Diabetes and disorders related to Type 2 Diabetes. […] We have also shown that another structural homolog of these compounds, LB-107, is active when given orally to mice. LB-100 is entering clinical trials as a potential agent for enhancing the effectiveness of certain anticancer agents.
# [3] = Type 2 Diabetes related vascular injury in human patients (Example 5); format: in vivo; details: human patients diagnosed with Type 2 Diabetes
# [4] = Insulin resistance in human patients diagnosed with Type 2 Diabetes (Example 4); format: in vivo
# [5] = Other symptoms and complications of Type 2 Diabetes (Example 6); format: in vivo; details: for effects of other dysfunctions associated with or caused by Type 2 Diabetes: atherosclerosis, low glucose tolerance, dyslipidemia, hyperlipidemia, hypertriglyceridemia, hypercholesterolemia; for complications associated with or caused by Type 2 Diabetes: in vivo
# endothelial barrier [6] = details: Zhou et al, 2012; cited from earlier work
# PP2A [7] = target: T2, PP2A (Homo sapiens, UniProt P67775); details: cited from earlier work
# T2 construct: endogenous in cells; host or cells: human cancer cells
# cancer cells = test: Growth of cancer cells in mouse model systems; format: in vivo
# Source text: as §1, §2
# PP2A [8] = target: T2, PP2A; details: given parenterally in mice; cited from earlier work
# Toxicity studies in rats = format: in vivo; details: doses known to reduce PP2A activity in tissue
# Source text: as §2
# Toxicity studies in dogs = format: in vivo; details: doses known to reduce PP2A activity in tissue
# Source text: as §2
# endothelial barrier [9] = details: model of sepsis; by inhibition of PP2A activation; cited from earlier work
# T2 sequence (P67775 whole entry): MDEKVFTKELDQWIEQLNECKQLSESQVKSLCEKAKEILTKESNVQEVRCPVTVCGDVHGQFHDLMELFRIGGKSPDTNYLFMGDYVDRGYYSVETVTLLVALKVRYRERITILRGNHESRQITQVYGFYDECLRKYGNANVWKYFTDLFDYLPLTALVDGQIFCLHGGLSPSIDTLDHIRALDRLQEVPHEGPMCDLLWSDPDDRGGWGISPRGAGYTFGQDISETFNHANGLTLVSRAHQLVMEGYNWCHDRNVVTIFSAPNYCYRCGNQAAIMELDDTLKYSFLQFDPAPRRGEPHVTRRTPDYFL
# T2 sequence (P30153 whole entry partner): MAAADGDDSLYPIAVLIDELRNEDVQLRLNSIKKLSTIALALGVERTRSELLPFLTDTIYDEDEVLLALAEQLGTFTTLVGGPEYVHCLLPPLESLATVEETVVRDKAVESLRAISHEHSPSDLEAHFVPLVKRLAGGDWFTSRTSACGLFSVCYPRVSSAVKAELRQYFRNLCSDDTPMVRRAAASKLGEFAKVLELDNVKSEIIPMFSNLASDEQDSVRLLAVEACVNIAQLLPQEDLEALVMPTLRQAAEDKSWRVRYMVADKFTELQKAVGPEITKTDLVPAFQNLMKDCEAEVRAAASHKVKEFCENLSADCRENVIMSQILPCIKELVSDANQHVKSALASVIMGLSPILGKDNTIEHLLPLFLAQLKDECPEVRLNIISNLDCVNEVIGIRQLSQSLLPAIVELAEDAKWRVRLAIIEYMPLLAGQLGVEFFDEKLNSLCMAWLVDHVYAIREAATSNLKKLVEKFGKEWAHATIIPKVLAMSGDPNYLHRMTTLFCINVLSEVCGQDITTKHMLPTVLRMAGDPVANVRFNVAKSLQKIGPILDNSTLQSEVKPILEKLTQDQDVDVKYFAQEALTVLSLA
# T1 sequence (P63331 whole entry): as the sequence (P67775 whole entry) above, with V5L counted along it
# T1 sequence (Q5XI34 1-589 partner): as the sequence (P30153 whole entry partner) above, with S324T counted along it
Compound,impairment of insulin activity (PP2A [1]),activation of Akt (Akt),dephosphorylation and inactivation of Akt by PP2A (Akt),phosphorylation of Akt (Akt),activity when given orally to mice [2],Type 2 Diabetes related vascular injury caused by disruption of the endothelial barrier [3],"Type 2 Diabetes related vascular injury in the liver, muscle, retina and pancreas [3]",insulin resistance [4],insulin sensitivity [4],effects of other dysfunctions associated with or caused by Type 2 Diabetes [5],complications associated with or caused by Type 2 Diabetes [5],induction of endothelial barrier injury by lipopolysaccharide and interferon gamma (endothelial barrier [6]),inhibition of PP2A in vitro in human cancer cells (PP2A [7]),growth of cancer cells in mouse model systems (cancer cells),inhibition of PP2A in xenografts of human tumor cells in mice (PP2A [8]),toxicity on intravenous administration (Toxicity studies in rats),toxicity on intravenous administration (Toxicity studies in dogs),endothelial barrier function (endothelial barrier [9])
C[C@@]12C(=O)OC(=O)[C@]1(C)[C@H]1CC[C@@H]2O1 [cantharidin],reversed the impairment of insulin activity,,,,,,,,,,,,,,,,,
"COC(=O)C1C(C(=O)N2CCN(C)CC2)[C@@H]2CC[C@H]1O2 (stereo in doubt) [LB-107, 3-(4-Methylpiperazine-1-carbonyl)-7-oxa-bicyclo[2,2,1]heptane-2-carboxylic acid methyl ester]",,increase activation of Akt,reduce dephophorylation and inactivation of Akt,increase phosphorylation of Akt,active,reduce Type 2 Diabetes related vascular injury caused by disruption of the endothelial barrier,"reduce Type 2 Diabetes related vascular injury in the liver, muscle, retina and pancreas",reduce insulin resistance,increase insulin sensitivity,reduce the effects of other dysfunctions,reduce complications associated with or caused by Type 2 Diabetes,,,,,,,
C=C1[C@@H](O)[C@@H]2O[C@]3(CC[C@H](/C=C/[C@@H](C)[C@@H]4CC(C)=C[C@@]5(O[C@H](C[C@@](C)(O)C(=O)O)CC[C@H]5O)O4)O3)CC[C@H]2O[C@@H]1[C@@H](O)C[C@H](C)[C@H]1O[C@@]2(CCCCO2)CC[C@H]1C [okadaic acid],reversed the impairment of insulin activity,,,,,,,,,,,prevent the induction of endothelial barrier injury; also recorded: prevents the induction of endothelial barrier dysfunction,,,,,,
CC(C)(C)OC(=O)N1CCN(C(=O)C2C(C(=O)O)[C@H]3CC[C@@H]2O3)CC1 (some centres unmarked) [LB-102],,increase activation of Akt,reduce dephophorylation and inactivation of Akt,increase phosphorylation of Akt,,reduce Type 2 Diabetes related vascular injury caused by disruption of the endothelial barrier,"reduce Type 2 Diabetes related vascular injury in the liver, muscle, retina and pancreas",reduce insulin resistance,increase insulin sensitivity,reduce the effects of other dysfunctions,reduce complications associated with or caused by Type 2 Diabetes,,inhibitors of PP2A,inhibit the growth of cancer cells,inhibitors of PP2A,,,
CN1CCN(C(=O)C2C(C(=O)O)[C@H]3CC[C@@H]2O3)CC1 (some centres unmarked) [LB-100],,increase activation of Akt,reduce dephophorylation and inactivation of Akt,increase phosphorylation of Akt,,reduce Type 2 Diabetes related vascular injury caused by disruption of the endothelial barrier,"reduce Type 2 Diabetes related vascular injury in the liver, muscle, retina and pancreas",reduce insulin resistance,increase insulin sensitivity,reduce the effects of other dysfunctions,reduce complications associated with or caused by Type 2 Diabetes,,inhibitors of PP2A,inhibit the growth of cancer cells,inhibitors of PP2A,without undue toxicity,without undue toxicity,
O=C1O[C@H]([C@@H](O)CO)C(O)=C1O [ascorbic acid],,,,,,,,,,,,prevent the induction of endothelial barrier injury,,,,,,improves endothelial barrier function
